Tests used:
[1] = Interaction with the stable free radical DPPH (reducing activity)
Experimental: Firstly, the synthesized derivatives were evaluated for their ability to interact with the stable free radical 2,2-diphenyl-1-picrylhydrazyl (DPPH) at a concentration of 100 μM after 20 and 60 min (Table 2). DPPH is a valuable tool for studying antioxidant activity. Its reactivity with lipophilic compounds is not solely determined by their lipophilicity. The specific chemical structure of the antioxidant, the solvent used, and other factors can all influence the interaction with DPPH. However, lipophilic compounds tend to be well dissolved in organic solvents reacting with DPPH. Based on previous findings, the antioxidant activity is related with lipophilicity.
(§1) A 10 mM stock solution of the synthesized compounds was prepared in DMSO for the vitro assays. Serial dilutions were carried out to determine the IC50 values. Each experiment was conducted six times, with standard deviations remaining below 10% of the mean.
An in vitro study was conducted as previously described by our group. Free radical scavenging activity was evaluated by measuring absorbance at 517 nm after 20 and 60 min at room temperature.

[2] = Inhibition of AAPH-induced linoleic acid peroxidation
Experimental: In the lipid peroxidation assay, 2,2′-azobis(2-methylpropionamidine)dihydrochloride (AAPH) was used as a peroxyl radical inducer, and sodium linoleate as a substrate. The formation of 13-hydroperoxy-linoleic acid from linoleic acid was monitored by measuring absorbance at 234 nm. Trolox was used as a reference compound.
as §1
AAPH was employed as an inducer of alkyl peroxyl radicals. In this experiment, the compounds’ ability to inhibit the oxidation of linoleic acid by alkyl peroxyl radicals was assessed by monitoring the change in absorbance at 234 nm due to the formation of 13-hydroperoxy-linoleic acid. Trolox was used as the reference compound [59, 68].

soybean lipoxygenase = target: T1, soybean lipoxygenase (Glycine max, UniProt P08170); test: Inhibition of soybean lipoxygenase; assay type: biochemical; conditions: for IC50: soybean lipoxygenase, sodium linoleate substrate, read-out: LOX IC50; for inhibition at 100 µM: read-out: LOX % Inhibition 100 μM
T1 construct: purchased Sigma Aldrich, Merck KGaA, Darmstadt, Germany
T1 sequence (P08170 1-839): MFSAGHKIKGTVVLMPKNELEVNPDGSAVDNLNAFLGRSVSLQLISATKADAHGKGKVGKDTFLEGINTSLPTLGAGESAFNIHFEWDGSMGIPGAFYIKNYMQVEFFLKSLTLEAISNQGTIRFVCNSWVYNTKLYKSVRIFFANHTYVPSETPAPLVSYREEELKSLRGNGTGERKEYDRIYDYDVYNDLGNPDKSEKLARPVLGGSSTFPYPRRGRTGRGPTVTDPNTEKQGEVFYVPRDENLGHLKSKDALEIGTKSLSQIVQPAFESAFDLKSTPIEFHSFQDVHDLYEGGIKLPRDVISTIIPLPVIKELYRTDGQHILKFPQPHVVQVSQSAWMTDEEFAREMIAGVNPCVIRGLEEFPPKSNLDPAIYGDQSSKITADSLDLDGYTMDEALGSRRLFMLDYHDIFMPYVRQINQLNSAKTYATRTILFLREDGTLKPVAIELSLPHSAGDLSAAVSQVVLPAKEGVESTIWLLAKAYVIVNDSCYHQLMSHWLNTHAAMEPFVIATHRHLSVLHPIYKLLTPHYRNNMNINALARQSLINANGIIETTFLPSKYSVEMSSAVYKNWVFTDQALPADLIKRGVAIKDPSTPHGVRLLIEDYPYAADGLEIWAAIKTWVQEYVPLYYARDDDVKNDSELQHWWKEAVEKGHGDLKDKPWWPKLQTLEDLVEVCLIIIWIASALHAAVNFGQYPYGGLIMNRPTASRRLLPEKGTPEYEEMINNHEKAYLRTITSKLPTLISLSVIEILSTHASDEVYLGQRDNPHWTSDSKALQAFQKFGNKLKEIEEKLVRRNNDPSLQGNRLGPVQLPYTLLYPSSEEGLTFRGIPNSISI
Experimental: Lipoxygenase (LOX) is responsible for the formation of leukotrienes, important inflammatory mediators. Due to its important role, it is considered as a therapeutic target for inflammatory diseases. Soybean lipoxygenase (LOX), a plant-derived enzyme, has been extensively utilized as a model for investigating the functional and structural properties of the lipoxygenase family, due to its significant homology with human 5-LOX [35, 61].
A 10 mM stock solution of the synthesized compounds was prepared in DMSO for the vitro assays. Serial dilutions were carried out to determine the IC50 values.
Sodium linoleate (0.1 mM), 0.2 mL of soybean lipoxygenase solution (1/9 × 10^−4 w/v in saline), and 10 μL of the test compound stock solution (10 mM in DMSO) were incubated at room temperature. Absorbance was recorded at 234 nm while monitoring the formation of 13-hydroperoxy-linoleic acid. […] To determine IC50 values, various concentrations of the test compounds were applied.

[3] = tested on: Valosine-containing protein; set-up: method as in PMID 23245311; conditions: from the literature; cited from earlier work

O=C(C=Cc1ccccc1)NNC(=S)Nc1ccccc1 [Compound 3a, 2-Cinnamoyl-N-phenylhydrazine-1-carbothioamide]
RA % 100 μM 20 min [1]: 61% | RA % 100 μM 60 min [1]: 92% | AAPH % Inhibition 100 μM [2]: 67% | IC50 (soybean lipoxygenase): 8.5 µM

O=C(/C=C/c1ccc(Cl)cc1)NNC(=S)Nc1ccccc1 [Compound 3b, (E)-2-(3-(4-Chlorophenyl)acryloyl)-N-phenylhydrazine-1-carbothioamide]
RA % 100 μM 20 min [1]: 90% | RA % 100 μM 60 min [1]: 83% | AAPH % Inhibition 100 μM [2]: 37% | inhibition at 100 µM (soybean lipoxygenase): 49%

O=C(/C=C/c1ccc(F)cc1)NNC(=S)Nc1ccccc1 [Compound 3c, (E)-2-(3-(4-Fluorophenyl)acryloyl)-N-phenylhydrazine-1-carbothioamide]
RA % 100 μM 20 min [1]: 90% | RA % 100 μM 60 min [1]: 91% | AAPH % Inhibition 100 μM [2]: 12% | inhibition at 100 µM (soybean lipoxygenase): 45%

O=C(/C=C/c1ccc(Br)cc1)NNC(=S)Nc1ccccc1 [Compound 3d, (E)-2-(3-(4-Bromophenyl)acryloyl)-N-phenylhydrazine-1-carbothioamide]
RA % 100 μM 20 min [1]: 29% | RA % 100 μM 60 min [1]: 97% | AAPH % Inhibition 100 μM [2]: 33% | IC50 (soybean lipoxygenase): 8 µM

CC(=O)Oc1ccc(/C=C/C(=O)NNC(=S)Nc2ccccc2)cc1 [Compound 3e, (E)-4-(3-Oxo-3-(2-(phenylcarbamothioyl)hydrazineyl)prop-1-en-1-yl)phenyl acetate]
RA % 100 μM 20 min [1]: 83% | RA % 100 μM 60 min [1]: 21% | AAPH % Inhibition 100 μM [2]: 47% | IC50 (soybean lipoxygenase): 9.75 µM

O=C(/C=C/c1ccc2c(c1)OCO2)NNC(=S)Nc1ccccc1 [Compound 3f, (E)-2-(3-(Benzo[d][1,3]dioxol-5-yl)acryloyl)-N-phenylhydrazine-1-carbothioamide]
RA % 100 μM 20 min [1]: 70% | RA % 100 μM 60 min [1]: 89% | AAPH % Inhibition 100 μM [2]: 58% | IC50 (soybean lipoxygenase): 35 µM

O=C(/C=C/c1ccc(OCc2ccc(Br)cc2)cc1)NNC(=S)Nc1ccccc1 [Compound 3g, (E)-2-(3-(4-((4-Bromobenzyl)oxy)phenyl)acryloyl)-N-phenylhydrazine-1-carbothioamide]
RA % 100 μM 20 min [1]: 98% | RA % 100 μM 60 min [1]: 87% | AAPH % Inhibition 100 μM [2]: 91% | IC50 (soybean lipoxygenase): 10 µM

Sc1nnc(/C=C/c2ccccc2)n1-c1ccccc1 [Compound 4a, (E)-4-Phenyl-5-styryl-4H-1,2,4-triazole-3-thiol]
RA % 100 μM 20 min [1]: 74% | RA % 100 μM 60 min [1]: 93% | AAPH % Inhibition 100 μM [2]: 26% | IC50 (soybean lipoxygenase): 7.5 µM

Sc1nnc(/C=C/c2ccc(Cl)cc2)n1-c1ccccc1 [Compound 4b, (E)-5-(4-Chlorostyryl)-4-phenyl-4H-1,2,4-triazole-3-thiol]
RA % 100 μM 20 min [1]: 33% | RA % 100 μM 60 min [1]: 88% | AAPH % Inhibition 100 μM [2]: 34% | IC50 (soybean lipoxygenase): 4.5 µM

Fc1ccc(/C=C/c2nnc(S)n2-c2ccccc2)cc1 [Compound 4c, (E)-5-(4-Fluorostyryl)-4-phenyl-4H-1,2,4-triazole-3-thiol]
RA % 100 μM 20 min [1]: 82% | RA % 100 μM 60 min [1]: 93% | AAPH % Inhibition 100 μM [2]: 94% | inhibition at 100 µM (soybean lipoxygenase): 35%

Sc1nnc(/C=C/c2ccc(Br)cc2)n1-c1ccccc1 [Compound 4d, (E)-5-(4-Bromostyryl)-4-phenyl-4H-1,2,4-triazole-3-thiol]
RA % 100 μM 20 min [1]: 68% | RA % 100 μM 60 min [1]: 57% | AAPH % Inhibition 100 μM [2]: 20% | IC50 (soybean lipoxygenase): 97.5 µM | Valosine-containing protein inhibition [3]: allosteric Valosine-containing protein inhibitor

CC(=O)Oc1ccc(/C=C/c2nnc(S)n2-c2ccccc2)cc1 [Compound 4e, (E)-4-(2-(5-Mercapto-4-phenyl-4H-1,2,4-triazol-3-yl)vinyl)phenyl acetate]
RA % 100 μM 20 min [1]: 96% | RA % 100 μM 60 min [1]: 93% | AAPH % Inhibition 100 μM [2]: 87% | IC50 (soybean lipoxygenase): 5.5 µM

Sc1nnc(/C=C/c2ccc3c(c2)OCO3)n1-c1ccccc1 [Compound 4f, (E)-5-(2-(Benzo[d][1,3]dioxol-5-yl)vinyl)-4-phenyl-4H-1,2,4-triazole-3-thiol]
RA % 100 μM 20 min [1]: 87% | RA % 100 μM 60 min [1]: 76% | AAPH % Inhibition 100 μM [2]: 71% | IC50 (soybean lipoxygenase): 7.5 µM

Sc1nnc(/C=C/c2ccc(OCc3ccc(Br)cc3)cc2)n1-c1ccccc1 [Compound 4g, (E)-5-(4-((4-Bromobenzyl)oxy)styryl)-4-phenyl-4H-1,2,4-triazole-3-thiol]
RA % 100 μM 20 min [1]: 97% | RA % 100 μM 60 min [1]: 92% | AAPH % Inhibition 100 μM [2]: 50% | IC50 (soybean lipoxygenase): 4.5 µM

C(=C\c1nnc(Nc2ccccc2)o1)/c1ccccc1 [Compound 5a, (E)-N-Phenyl-5-styryl-1,3,4-oxadiazol-2-amine]
RA % 100 μM 60 min [1]: 7% | AAPH % Inhibition 100 μM [2]: 17% | IC50 (soybean lipoxygenase): 32.5 µM

Clc1ccc(/C=C/c2nnc(Nc3ccccc3)o2)cc1 [Compound 5b, (E)-5-(4-Chlorostyryl)-N-phenyl-1,3,4-oxadiazol-2-amine]
RA % 100 μM 20 min [1]: 65% | RA % 100 μM 60 min [1]: 72% | IC50 (soybean lipoxygenase): 18 µM

Fc1ccc(/C=C/c2nnc(Nc3ccccc3)o2)cc1 [Compound 5c, (E)-5-(4-Fluorostyryl)-N-phenyl-1,3,4-oxadiazol-2-amine]
RA % 100 μM 20 min [1]: 92% | RA % 100 μM 60 min [1]: 82% | AAPH % Inhibition 100 μM [2]: 63% | IC50 (soybean lipoxygenase): 17 µM

C(=C\c1nnc(Nc2ccccc2)s1)/c1ccccc1 [Compound 6a, (E)-N-Phenyl-5-styryl-1,3,4-thiadiazol-2-amine]
RA % 100 μM 20 min [1]: 98% | RA % 100 μM 60 min [1]: 96% | AAPH % Inhibition 100 μM [2]: 60% | IC50 (soybean lipoxygenase): 5 µM

CC(Cc1ccc(O)c(O)c1)C(C)Cc1ccc(O)c(O)c1 (centres unmarked) [NDGA, Nordihydroguaiaretic acid, reference compound]
RA % 100 μM 20 min [1]: 87% | RA % 100 μM 60 min [1]: 93%

Cc1c(C)c2c(c(C)c1O)CCC(C)(C(=O)O)O2 (centres unmarked) [Trolox, 6-hydroxy-2,5,7,8-tetramethyl-chroman2-carboxylic acid, reference compound]
AAPH % Inhibition 100 μM [2]: 92%

Source: publication PMC12348798, “Synthesis and Molecular Modeling of Antioxidant and Anti-Inflammatory Five-Membered Heterocycle–Cinnamic Acid Hybrids” (Molecules, 2025)
